Measured values taken from patent US20050239715A1, “Inhibition of allergic contact dermatitis by N-L-alpha-aspartyl-L-phenylalanine 1-methyl ester” (priority 2004, published 2005).
Residues, ends and D or L forms follow the SMILES beside them.

Assays:
[1] = system: capsaicin taste receptor (heat and irritation of the tongue); assay: Oral application of APM with capsaicin-containing red pepper sauce; format: in vivo
Source text: The variability in observable results in preventing dermatitis or topical irritation appear related to the amount of APM that is applied, the time and order of the therapeutic application, and the presence of receptors to which either the irritant oil or APM may bind.

[2] = system: capsaicin burning of the eye; assay: Example 7: capsaicin burning of the eye; format: in vivo, human; details: about 10 mg per 250 microliters in sterile saline applied to eye
Description: A kitchen worker is exposed to capsaicin oil from peppers during cooking preparation, the oil is transferred to their hands and then, by their hands, to their eyes, resulting in a burning sensation and pain. […] The application may be repeated in 15 min because tearing may dilute or wash away the active ingredients.

[3] = system: Urushiol-Induced Dermatitis on Human Skin; assay: Example 2: prevention of urushiol-induced dermatitis on human skin; format: in vivo; details: thin film of APM suspended in petroleum cream base applied before exposure
Source text: To an area of skin which may be exposed to urushiol is applied a thin film of APM suspended in a petroleum cream base.

[4] = system: capsaicin burning and pain of mucosa; assay: Example 8: APM after inadvertent mucosal contact with capsaicin cream; format: in vivo, human; details: preparation of 38 mg APM per 5 ml applied to affected area
Description: A patient is treated for arthritis with a capsaicin cream applied twice daily to the affected joint. Capsaicin is absorbed by the transdermal tissue and then transported to joint area. After an appropriate interval, for instance 2-5 days, significant reduction in swelling, heat, redness, and pain is observed. However, the patient also inadvertently contacts his or her urethra, periurethra tissues, vaginal mucosa, rectal mucosa, eyes, or nose with the capsaicin cream, resulting in a sensation of burning and pain in the affected area.

[5] = system: Urushiol-Induced Dermatitis on Human Skin; assay: Example 3: treatment and prevention of urushiol-induced dermatitis on human skin (Patient 1); format: in vivo; details: topical lotion 0.5 to 1 mg APM/ml, two to three times per day, also two packets Equal by mouth
Description: The goats frequently consumed and were in contact with both poison sumac and poison ivy abundant in their enclosure without experiencing symptoms.
A topical APM preparation was made by mixing 2 to 3 packets of Equal® brand sweetner (80-120 mg of APM) with approximately 170 ml (5.5 fluid ounces) of lotion containing Vaseline® Intensive Care® Water Resistant Moisturizing Lotion (Unilever United States, Inc.), resulting in a lotion with 0.5 to 1 mg APM/ml. Patient 1 had previously used the lotion base without effect. Patient 1 also took two packets of Equal® brand sweetener by mouth in response to a symptom of diarrhea, a condition known to be associated with urishiol.
A soap and water scrub of the affected area was done one hour after application of the cream, and the affected area allowed to air dry.
Additional affected areas were then discovered on Patient 1, and a lotion was prepared for Patient 1 to use on these areas as well as unaffected areas that could come in contact with poison ivy during their work. Patient 1 used additional topical APM preparation approximately two to three times per day.

[6] = system: allergic contact dermatitis, skin previously exposed to urushiol; assay: Example 1: treatment of allergic contact dermatitis with APM in a cream base; format: in vivo; details: thin film of APM in cream base, after sixty (60) minutes
Source text: To an area of skin previously exposed to urushiol is applied a thin film of APM in a cream base. […] Further treatment may include washing the affected area to remove and displace urushiol dissolved in the applied lotion and followed by reapplication of APM containing cream or lotion.

[7] = system: human rash secondary to urushiol exposure; assay: Example 4: treatment of rash caused by urushiol; format: in vivo
Description: A human rash, with itching, in progress secondary to contact with an animal known to have had significant exposure to urushiol substances was arrested in 8 hours with 2 applications of aspartame in a Vaseline Intensive Care Lotion base (about 1.2 to 10 mg/ml). The itching ceased, and discomfort and irritation resolved within 8 hours.

[8] = cited from earlier work

SMILES: COC(=O)[C@H](Cc1ccccc1)NC(=O)[C@@H](N)CC(=O)O [APM, N-L-alpha-aspartyl-L-phenylalanine 1-methyl ester] (H-Asp-Phe-OMe)
- perception of spiciness of red pepper sauce ([1]; APM applied orally before red pepper sauce): absence of recognition of the spicyness
- APM response after long duration of exposure to capsaicin ([1]; long exposure with secondary effects): not as strong nor as quick
- response when APM is applied after sensations of heat and irritation developed ([1]; red pepper sauce applied to tongue first, APM after): manifested and recognized quickly
- burning sensation of the eye [2]: alleviated
- symptoms of allergic contact dermatitis [3]: either do not appear or are significantly reduced
- burning and pain of affected area [4]: reducing or eliminating the burning and pain
- rash or reaction observed on the day after application [5]: no rash or reaction had occurred
- symptoms of allergic contact dermatitis [6]: significantly reduced
- time in which rash with itching was arrested ([7]; 2 applications in Vaseline Intensive Care Lotion base, about 1.2 to 10 mg/ml): 8 h
- time in which itching ceased and discomfort and irritation resolved ([7]; 2 applications in lotion base, about 1.2 to 10 mg/ml): ≤ 8 h
- state of rash overnight ([7]; overnight after 2 applications in lotion base): the rash was gone
- pH at which cyclisation with formation of diketopiperazine occurs in APM solutions [8]: greater than 5
